Measured values reported in PubChem BioAssay (NCI).
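Compound exposure: 48 hours, 5 concentrations, 96-well plates. Definition used: TGI = concentration required for complete inhibition of growth.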

Columns and labels:
Experiment in all cases: NCI tumour cell line growth inhibition, 48 h
[1] = system: HCT-15 colon
[2] = system: NCI-H226 lung
[3] = system: IGROV1 ovarian
[4] = system: A549 NSCLC
[5] = system: M14 melanoma
[6] = system: ACHN renal
[7] = system: CAKI-1 renal

| Structure (SMILES) | TGI [1] [µM] | TGI [2] [µM] | TGI [3] [µM] | TGI [4] [µM] | TGI [5] [µM] | TGI [6] [µM] | TGI [7] [µM] |
| --- | --- | --- | --- | --- | --- | --- | --- |
| COC(=O)C(Cc1c(-c2[nH]c3ccccc3c2CC(NC(C)=O)C(=O)OC)[nH]c2ccccc12)NC(C)=O (stereo unspecified) | > 100 | > 100 | > 100 | > 100 | > 100 | > 100 | > 100 |
| O=[N+]([O-])c1ccc(C2=NOC(c3ccccc3)N2C23CC4CC(CC(C4)C2)C3)cc1 (stereo unspecified) | > 100 | 89.9 | 72.5 | 96.7 | 88.4 | > 100 | 3.23 |
| O=C(O)CCC1C(=O)C2CCN1CC2 (stereo unspecified) | > 100 | > 100 | > 100 | > 100 | > 100 | > 100 | > 100 |
| C#CC(O)/C=C/C(O)CCCC(O)CC#CC(O)C#CCCCCC(O)/C=C/CCCCCC(=O)CCCCCCCCCCCCCC(O)C(O)C#CC(=O)O (stereo unspecified) | > 25 | > 25 | 9.59 | > 25 | > 25 | > 25 | > 25 |
| COc1ccc(/C=C/c2cc(O)cc(OC3OC(CO)C(O)C(O)C3O)c2)cc1O (stereo unspecified) | > 100 | > 100 | > 100 | > 100 | > 100 | > 100 | > 100 |
| NN/C(=N\S(=O)(=O)c1cc(S(=O)(=O)c2ccccc2)cs1)Nc1ccc(Cl)cc1 | > 100 | > 100 | > 100 | > 100 | 48.1 | > 100 | > 100 |
| CC(=O)n1nc(-c2[nH]c(C)c(-c3nn(C(C)=O)c(=S)o3)c2C)oc1=S | > 100 | > 100 | > 100 | > 100 | > 100 | > 100 | > 100 |
| COc1cc2c(SCCN(C)C)nc3ccccc3c2c2ccccc12 | 3.31 | 8.12 | 2.77 | 3.08 | 3.46 | 3.64 | 3.87 |
| Cc1c(CN2CCOCC2)c(CN2CCOCC2)c(C)n1-c1ccc(Cl)cn1 | > 100 | > 100 | > 100 | > 100 | > 100 | > 100 | > 100 |
| C#CCC(O)c1ccc(OC)c(OCc2ccccc2)c1 (stereo unspecified) | > 100 | > 100 | > 100 | > 100 | > 100 | > 100 | > 100 |
| CSc1ncc2c(C#N)c3n(C)c4ccccc4n3c(=O)c2n1 | > 100 | > 100 | > 100 | > 100 | > 100 | > 100 | > 100 |
| C=C1[C@@H](OC(C)=O)/C=C/C2C3C(=O)[C@@](C)(OC(C)=O)[C@H]([C@H](OC(C)=O)[C@]4(O)[C@@H](C)C(=O)O[C@H]4[C@H]1Cl)[C@@]23C (stereo partly specified) | > 100 | > 100 | > 100 | > 100 | > 100 | > 100 | > 100 |
| Cc1ccc(NC(=O)CC(=O)N2N=C(N(c3ccccc3)c3ccccc3)CC2c2ccccc2)cc1 (stereo unspecified) | > 100 | > 100 | > 100 | > 100 | > 100 | > 100 | > 100 |
| COc1ccc(NC(=O)CSc2nc(C)nc3c2sc(=S)n3-c2ccccc2)cc1 | > 10 | > 10 | > 10 | > 10 | > 10 | > 10 | > 10 |
| C=C1C(=O)O[C@H]2C(=O)[C@H](C)CCC/C(C)=C/CC[C@@]3(C)O[C@@H]3C[C@@H]12 | 3.12 | 33.3 | 10.2 | 21.4 | 3.28 | 2.63 | 3.23 |
| O=C(O[C@H](/C=C/c1ccccc1)P1(=O)N(Cc2ccccc2)[C@H]2CCCC[C@@H]2N1Cc1ccccc1)c1ccccc1 | > 100 | 7.85 | 18.6 | > 100 | > 100 | > 100 | 5.93 |
| Cc1ccc(N=NC(=O)NNc2ccc(C)cc2Br)c(Br)c1 | 65.3 | 62.8 | 63.8 | > 100 | 72 | 89.1 | > 100 |
| CN1C(=O)C(O)CC1c1ccccc1F (stereo unspecified) | > 100 | > 100 | > 100 | > 100 | > 100 | > 100 | > 100 |
| C=CC(=O)C#Cc1cnc(OC)nc1OC | 24.6 | > 92.7 | 53.6 | > 100 | 37.7 | 23.6 | 21.1 |

| Structure (SMILES) | TGI [1] [µM] | TGI [2] [µM] | TGI [3] [µM] | TGI [4] [µM] | TGI [5] [µM] | TGI [6] [µM] | TGI [7] [µM] |
| --- | --- | --- | --- | --- | --- | --- | --- |
| CCOC(=O)CCCc1cc(=O)c2c(C)c3[nH]c4ccc(Cl)cc4c3c(C)c2[nH]1 | > 100 | 61 | 86.4 | 43.5 | > 100 | 80.3 | 43.2 |
| O=C1NC(=Nc2ccccc2Cl)N/C1=C\c1c(Cl)cccc1Cl | > 100 | > 100 | > 100 | > 100 | > 100 | > 100 | > 100 |
| O=C(NCCc1ccccn1)c1ccc2cc(C(=O)N3CC(CCl)c4ccc([N+](=O)[O-])cc43)[nH]c2c1 (stereo unspecified) | > 100 | > 100 | > 100 | > 100 | > 100 | > 100 | > 52.7 |
| c1ccc(C2(c3cc4ccccc4[nH]3)OCCO2)nc1 | > 100 | > 100 | > 100 | > 100 | > 100 | > 100 | > 100 |
| CC(C)=NC(C(=O)O)C(C)(C)S (stereo unspecified) | > 100 | > 100 | > 100 | > 100 | > 100 | > 100 | > 100 |
| CC1=C(C)C2(C#N)C(=O)N3C(=NC(c4ccco4)NC3c3ccco3)C2(C#N)C(c2ccco2)N1 (stereo unspecified) | > 100 | > 100 | > 100 | > 100 | > 100 | > 100 | > 100 |
| CC(O)C1(O)C(O)CC(OC2c3cc4c(c(O)c3[C@@H]3C[C@@]2(C)OC32C=c3cc[nH]c3=N2)C(=O)c2cccc(O)c2C4=O)OC1C (stereo partly specified) | 6.41 | 3.17 | 3.22 | 4.4 | 2.73 | 4.04 | 5.51 |
| CC(=O)OC[C@@]1(C)[C@@H]2[C@@H]3[C@@]4(CO[C@]3(C)C(=O)[C@@]3(OC(C)=O)C[C@H](C)[C@H](OC(C)=O)[C@@H]3[C@H]4OC(C)=O)[C@H](OC(=O)c3ccccc3)C[C@@H]21 | > 100 | > 100 | > 100 | > 100 | > 100 | > 100 | > 100 |
| COC1(OC)CCCCCCCCC(OC)(OC)CCCCCCCC1 | > 100 | > 100 | > 100 | > 100 | > 100 | > 100 | > 100 |
| COC(=O)c1ccccc1C1CN=NC12Cc1cc3c(cc1C2=O)CCC3 (stereo unspecified) | > 100 | > 100 | > 100 | > 100 | > 100 | > 100 | > 100 |
| COc1ccc(NCc2cccc3c(=O)c4ccc(Cl)cc4oc23)cc1 | > 100 | > 100 | > 100 | > 100 | > 100 | > 100 | > 100 |
| COC1=CC(=O)C2=C(C1=O)[C@H]1CC[C@]3(C)C(=O)CC[C@H]3[C@@H]1CC2 | > 100 | 49.7 | 44.5 | > 100 | > 100 | 79.3 | 77 |
| O=c1c2c3c(sc2nc2n1sc1nc4sc5c(c4c(=O)n12)CCCC5)CCCC3 | > 100 | 98.1 | > 100 | > 100 | > 100 | > 100 | 36.4 |
| COC(=O)CSc1cc(Cl)c(C)cc1S(=O)(=O)Nc1n[nH]c(N)n1 | > 10 | > 10 | > 10 | > 10 | > 10 | > 10 | > 10 |
| C[n+]1c(-c2ccc(/C=N\Nc3ccnc(N/N=C/c4ccc(-c5cn6ccsc6[n+]5C)cc4)n3)cc2)cn2ccsc21 | > 100 | 66.7 | 65.4 | > 100 | 30.4 | > 100 | 80.8 |
| Cn1c(=O)oc2cc(C(O)CN3CCN(Cc4ccc5c(c4)OCO5)CC3)ccc21 (stereo unspecified) | > 100 | > 100 | > 100 | > 100 | > 100 | > 100 | > 100 |
| COc1ccc(/C(=N/Nc2nc3ccccc3n2Cc2ccccc2)C(=O)O)cc1 | > 100 | 63 | 40.7 | > 100 | 38.9 | > 100 | 45.8 |
| C#CCNCC(=O)O | > 100 | > 100 | > 100 | > 100 | > 100 | > 100 | > 100 |
| CC(NC1=NCCO1)c1ccsc1 (stereo unspecified) | > 100 | > 100 | > 100 | > 100 | 35.4 | > 100 | > 100 |
